Laboratory results published in US20250049798A1, “WEE1 PROTEIN KINASE DEGRADATION AGENT AND USE THEREOF” (HANGZHOU GLUBIO PHARMACEUTICAL CO. LTD., priority 2021, published 2025).
Read-outs that look alike come from different tables or passages of the source.

Target: HiBiT tagged Wee1 (Homo sapiens, UniProt P30291)
Experiment: Wee1 protein degradation assay (HiBiT assay)
Type: cell-based
[1] = engineered HT-1080 cells, 20 hours
[2] = engineered HT-1080 cells, 20 hours, maximum percentage of Wee1 degradation, read-out: HiBiT Wee1: Dmax

Sequence of HiBiT tagged Wee1 (P30291 whole entry): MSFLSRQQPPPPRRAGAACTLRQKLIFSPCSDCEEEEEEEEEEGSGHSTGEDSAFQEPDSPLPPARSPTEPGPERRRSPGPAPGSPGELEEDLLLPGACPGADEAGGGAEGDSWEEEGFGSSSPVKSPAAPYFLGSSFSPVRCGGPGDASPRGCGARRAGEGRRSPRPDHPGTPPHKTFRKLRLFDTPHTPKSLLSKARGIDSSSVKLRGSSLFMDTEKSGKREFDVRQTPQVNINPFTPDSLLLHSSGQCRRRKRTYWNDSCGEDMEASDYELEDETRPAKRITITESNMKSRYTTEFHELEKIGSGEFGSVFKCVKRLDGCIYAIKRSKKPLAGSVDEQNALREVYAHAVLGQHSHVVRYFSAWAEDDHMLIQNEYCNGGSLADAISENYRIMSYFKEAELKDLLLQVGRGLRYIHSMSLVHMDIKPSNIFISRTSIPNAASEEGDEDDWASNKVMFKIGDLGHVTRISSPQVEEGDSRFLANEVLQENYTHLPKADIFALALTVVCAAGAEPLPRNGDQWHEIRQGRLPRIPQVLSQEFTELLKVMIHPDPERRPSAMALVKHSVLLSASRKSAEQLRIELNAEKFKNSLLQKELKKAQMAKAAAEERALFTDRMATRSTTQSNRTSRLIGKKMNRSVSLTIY

Structure (SMILES)	DC50 [1] [nM]	Dmax [2] [%]	Dmax (HT-1080, read-out: HiBiT Wee1: Dmax) [%]
C=CCn1c(=O)c2cnc(Nc3ccc(C4CCN(CC5CCN(c6ccc(N7CCC(=O)NC7=O)cc6)CC5)CC4)cc3)nc2n1-c1cccc(C(C)(C)O)n1 [Compound 146]	> 1000	< 50	
O=C1CCC(N2C(=O)c3ccc(N4CCC(CCN5CCC(c6ccc(Nc7ncc8c(=O)n(-c9c(Cl)cccc9Cl)c9nccn9c8n7)cc6)CC5)CC4)cc3C2=O)C(=O)N1 (centres unmarked) [Compound 15]	100 to 1000	50 to 75	
O=C1CCC(N2C(=O)c3ccc(N4CCC(CN5CCc6cc(Nc7ncc8c(=O)n(-c9c(Cl)cccc9Cl)c9nccn9c8n7)ccc6C5)CC4)cc3C2=O)C(=O)N1 (centres unmarked) [Compound 1]	> 1000	< 50	
Cc1cc(Nc2ncc3c(n2)N(C)CN(c2c(Cl)cccc2Cl)C3=O)ccc1N1CCC(CN2CC3(C2)CN(c2ccc4c(c2)C(=O)N(C2CCC(=O)NC2=O)C4=O)C3)CC1 (centres unmarked) [Compound 32]	100 to 1000	50 to 75	
C=CCn1c(=O)c2cnc(Nc3ccc4c(c3)CN(CCCCNc3ccc5c(c3)C(=O)N(C3CCC(=O)NC3=O)C5=O)CC4)nc2n1-c1cccc(C(C)(C)O)n1 (centres unmarked) [Compound 24]	> 1000		< 50
Cc1cc(Nc2ncc3c(n2)N(C)CN(c2c(Cl)cccc2Cl)C3=O)ccc1N1CCC(CN2CCN(c3ccc4c(c3)CN(C3CCC(=O)NC3=O)C4=O)CC2)CC1 (centres unmarked) [Compound 34]	> 1000	< 50	
C=CCn1c(=O)c2cnc(Nc3ccc(N4CCC(CN5CCC(c6ccc7c(N8CCC(=O)NC8=O)nn(C)c7c6)C(F)(F)C5)CC4)cc3)nc2n1-c1ccc2c(n1)[C@@](O)(CC)CC2 (some centres unmarked) [Compound 160]	< 100	50 to 75	
O=C1CCC(N2C(=O)c3ccc(N4CC(N5CCC(c6ccc(Nc7ncc8c(=O)n(-c9c(Cl)cccc9Cl)c9nccn9c8n7)cc6)CC5)C4)cc3C2=O)C(=O)N1 (centres unmarked) [Compound 42]	> 1000	50 to 75	
Cc1cc(Nc2ncc3c(n2)N(C)CN(c2c(Cl)cccc2Cl)C3=O)ccc1C1CCN(CC2CCN(c3cccc4c3C(=O)N(C3CCC(=O)NC3=O)C4=O)CC2)CC1 (centres unmarked) [Compound 19]	> 1000	< 50	
C=CCn1c(=O)c2cnc(Nc3ccc(N4CCC(CN5CCN(c6cc7c(cc6F)C(=O)N(C6CCC(=O)NC6=O)C7=O)CC5)CC4)cc3)nc2n1-c1cccc(C(C)(C)O)n1 (centres unmarked) [Compound 57]	< 100	50 to 75	
C=CCn1c(=O)c2cnc(Nc3ccc(N4CCC(CN5CCN(c6cc7c(cc6F)c(N6CCC(=O)NC6=O)nn7C)CC5)CC4)cc3)nc2n1-c1ccc2c(n1)[C@@](O)(CC)CC2 [Compound 201]	< 100	> 75	
COc1ccc(C(=O)N2CCC(CCN3CCC(c4ccc(Nc5ncc6c(=O)n(-c7c(Cl)cccc7Cl)c7nccn7c6n5)cc4)CC3)CC2)cc1N1CCC(=O)NC1=O [Compound 28]	> 1000	50 to 75	
C=CCn1c(=O)c2cnc(Nc3ccc(N4CCN(C[C@@H]5CCN(c6ccc(NC7CCC(=O)NC7=O)cc6F)C5)CC4)cc3)nc2n1-c1cccc(C(C)(C)O)n1 (some centres unmarked) [Compound 139]	< 100	> 75	
C=CCn1c(=O)c2cnc(Nc3ccc(N4CCC(CN5CCN(c6ccc(NC7CCC(=O)NC7=O)cc6Cl)CC5)CC4)cc3)nc2n1-c1cccc(C(C)(C)O)n1 (centres unmarked) [Compound 147]	< 100	> 75	
C=CCn1c(=O)c2cnc(Nc3ccc(N4CCN(CC5CCN(c6cc(OC)c(NC7CCC(=O)NC7=O)cc6F)CC5)CC4)cc3)nc2n1-c1ccc2c(n1)[C@@](O)(CC)CC2 (some centres unmarked) [Compound 177]	< 100	> 75	
C=CCn1c(=O)c2cnc(Nc3ccc(N4CCN(CC5CCN(c6cccc7c(N8CCC(=O)NC8=O)nn(C)c67)CC5)CC4)cc3)nc2n1-c1cccc(C(C)(C)O)n1 [Compound 143]	< 100	50 to 75	
C=CCn1c(=O)c2cnc(Nc3ccc(N4CCC5(CC4)CCN(C4CN(c6ccc(NC7CCC(=O)NC7=O)cc6F)C4)CC5)cc3)nc2n1-c1ccc2c(n1)[C@@](O)(CC)CC2 (some centres unmarked) [Compound 171]	< 100	> 75	
C=CCn1c(=O)c2cnc(Nc3ccc(C4CCN(CC5CCN(c6ccc(NC7CCC(=O)NC7=O)cn6)CC5)CC4)cc3)nc2n1-c1cccc(C(C)(C)O)n1 (centres unmarked) [Compound 84]	< 100	50 to 75	
C=CCn1c(=O)c2cnc(Nc3ccc(N4CCN(CCCCc5cccc6c5CN(C5CCC(=O)NC5=O)C6=O)CC4)cc3)nc2n1-c1cccc(C(C)(C)O)n1 (centres unmarked) [Compound 50]	< 100	50 to 75	
COc1ccc(C(=O)N2CCC(CN3CCN(Cc4ccc(Nc5ncc6c(=O)n(-c7c(Cl)cccc7Cl)c7nccn7c6n5)cc4)CC3)CC2)cc1N1CCC(=O)NC1=O [Compound 58]	> 1000	< 50	
C=CCn1c(=O)c2cnc(Nc3ccc(N4CCC(N5CCN(c6cc7c(cc6F)C(=O)N(C6CCC(=O)NC6=O)C7=O)CC5)CC4)cc3)nc2n1-c1cccc(C(C)(C)O)n1 (centres unmarked) [Compound 78]	100 to 1000	50 to 75	
C=CCn1c(=O)c2cnc(Nc3ccc(N4CCC(CN5CCC(c6cccc7c6n(C)c(=O)n7C6CCC(=O)NC6=O)CC5)CC4)cc3)nc2n1-c1ccc2c(n1)[C@](O)(CC)CC2 (some centres unmarked) [Compound 53]	> 1000	< 50	
C=CCn1c(=O)c2cnc(Nc3ccc(N4CCN(CC5CCN(c6ccc(NC7CCC(=O)NC7=O)cc6F)CC5)CC4)cc3)nc2n1-c1ccc2c(n1)[C@@](C)(O)CC2 (some centres unmarked) [Compound 113]	< 100	> 75	
C=CCn1c(=O)c2cnc(Nc3ccc(N4CCN(CC5CCN(c6ccc(NC7CCC(=O)NC7=O)cc6Cl)CC5)CC4)cc3)nc2n1-c1cccc(C(C)(C)O)n1 (centres unmarked) [Compound 88]	< 100	> 75	
C=CCn1c(=O)c2cnc(Nc3ccc(C4CCN(CC5CCN(c6ccc(C(=O)NC7CCC(=O)NC7=O)nc6)CC5)CC4)cc3)nc2n1-c1cccc(C(C)(C)O)n1 (centres unmarked) [Compound 35]	> 1000	< 50	
C=CCn1c(=O)c2cnc(Nc3ccc4c(c3)CN(CCCNc3ccc5c(c3)C(=O)N(C3CCC(=O)NC3=O)C5=O)CC4)nc2n1-c1cccc(C(C)(C)O)n1 (centres unmarked) [Compound 23]	> 1000	< 50	
COc1ccc(C(=O)N2CCC(CN3CCC(c4ccc(Nc5ncc6c(=O)n(-c7c(Cl)cccc7Cl)c7nccn7c6n5)cc4)CC3)CC2)cc1N1CCC(=O)NC1=O [Compound 26]	> 1000	< 50	
C=CCn1c(=O)c2cnc(Nc3ccc(N4CCN(CC5CCN(c6ccc(NC7CCC(=O)NC7=O)cc6F)CC5)CC4)cc3)nc2n1-c1cccc(OC)n1 (centres unmarked) [Compound 205]	< 100	> 75	
C=CCn1c(=O)c2cnc(Nc3ccc(N4CCN(CCCOc5ccc6c(c5)C(=O)N(C5CCC(=O)NC5=O)C6=O)CC4)cc3)nc2n1-c1cccc(C(C)(C)O)n1 (centres unmarked) [Compound 62]	< 100	> 75	

More lines, main results first:

DC50 [1] [nM]	Dmax [2] [%]	Structure (SMILES)	Dmax (HT-1080, read-out: HiBiT Wee1: Dmax) [%]
< 100	> 75	C=CCn1c(=O)c2cnc(Nc3ccc(N4CCC(N5CC6(CN(c7ccc(NC8CCC(=O)NC8=O)cc7F)C6)C5)CC4)cc3)nc2n1-c1ccc2c(n1)[C@@](O)(CC)CC2 (some centres unmarked) [Compound 154]	
< 100	50 to 75	C=CCn1c(=O)c2cnc(Nc3ccc(N4CCC(N(C)C5CCN(c6cccc7c6n(C)c(=O)n7C6CCC(=O)NC6=O)CC5)CC4)cc3)nc2n1-c1cccc(C(C)(C)O)n1 (centres unmarked) [Compound 98]	
< 100	> 75	C=CCn1c(=O)c2cnc(Nc3ccc(N4CCC(CN5CCN(c6ccc(NC7CCC(=O)NC7=O)cc6F)CC5)CC4)c(C)c3)nc2n1-c1ccc2c(n1)[C@@](O)(CC)CC2 (some centres unmarked) [Compound 134]	
< 100	> 75	C=CCn1c(=O)c2cnc(Nc3ccc(N4CCN(CC5CN(c6ccc(NC7CCC(=O)NC7=O)cc6F)C5)CC4)cc3)nc2n1-c1cccc(C(C)(C)O)n1 (centres unmarked) [Compound 122]	
< 100	50 to 75	C=CCn1c(=O)c2cnc(Nc3ccc(C4CCN(C[C@H]5CCN(c6ccc7c(c6)C(=O)N(C6CCC(=O)NC6=O)C7=O)C5)CC4)cc3)nc2n1-c1cccc(C(C)(C)O)n1 (some centres unmarked) [Compound 36]	
< 100	50 to 75	C=CCn1c(=O)c2cnc(Nc3ccc(N4CCN(CCNc5ccc6c(c5)C(=O)N(C5CCC(=O)NC5=O)C6=O)CC4)cc3)nc2n1-c1cccc(C(C)(C)O)n1 (centres unmarked) [Compound 11]	
< 100	> 75	C=CCn1c(=O)c2cnc(Nc3ccc(N4CCN(CC5CCN(c6ccc(NC7CCC(=O)NC7=O)cc6F)CC5)CC4)c(C)c3)nc2n1-c1ccc2c(n1)[C@](C)(O)CC2 (some centres unmarked) [Compound 130]	
< 100	> 75	C=CCn1c(=O)c2cnc(Nc3ccc(N4CCC(N5CC[C@@H](c6ccc(NC7CCC(=O)NC7=O)cc6F)C(F)(F)C5)CC4)cc3)nc2n1-c1ccc2c(n1)[C@@](O)(CC)CC2 (single isomer, unassigned) [Compound 184]	
< 100	50 to 75	C=CCn1c(=O)c2cnc(Nc3ccc(N4CCN(C(=O)CC5(O)CCN(c6ccc(NC7CCC(=O)NC7=O)cc6F)CC5)CC4)cc3)nc2n1-c1ccc2c(n1)[C@@](O)(CC)CC2 (some centres unmarked) [Compound 159]	
< 100	> 75	C=CCn1c(=O)c2cnc(Nc3ccc(N4CCC(CN5CCN(c6ccc7c(N8CCC(=O)NC8=O)nn(C)c7c6)CC5)CC4)cc3)nc2n1-c1ccc2c(n1)[C@](C)(O)CC2 [Compound 127]	
< 100	> 75	O=C1CCC(Nc2ccc(N3CCN(CC4CCN(c5ccc(Nc6ncc7c(=O)n(-c8c(Cl)cccc8Cl)c8nccn8c7n6)cc5)CC4)CC3)c(F)c2)C(=O)N1 (centres unmarked) [Compound 94]	
< 100	> 75	C=CCn1c(=O)c2cnc(Nc3ccc(N4CCN(CC5CCN(c6ccc(NC7CCC(=O)NC7=O)cc6F)CC5)CC4)cc3)nc2n1-c1ccc2c(n1)[C@](C)(O)CC2 (some centres unmarked) [Compound 112]	
< 100	> 75	C=CCn1c(=O)c2cnc(Nc3ccc(N4CCN(CCCc5ccc6c(c5)C(=O)N(C5CCC(=O)NC5=O)C6=O)CC4)cc3)nc2n1-c1cccc(C(C)(C)O)n1 (centres unmarked) [Compound 45]	
< 100	> 75	C=CCn1c(=O)c2cnc(Nc3ccc(N4CCN(C5CCN(c6ccc(NC7CCC(=O)NC7=O)cc6F)CC5)[C@H](C)C4)cc3)nc2n1-c1ccc2c(n1)[C@@](O)(CC)CC2 (some centres unmarked) [Compound 186]	
